From patent US20210380595A1 (ARAXES PHARMA LLC, priority 2018, published 2021)

Each compound was assayed against T1, KRAS G12C 1-169, his-tagged protein, GDP-loaded (Homo sapiens, UniProt P01116, G12C) (assay: Biochemical assay: covalent modification of KRAS G12C measured by mass spectrometry (RapidFire/TOF or Q-Exactive)). Details: tested at 32 μM.
T1 construct: KRAS G12C 1-169, his-tagged protein, GDP-loaded
Type: binding
Experimental: Test compounds were prepared as 10 mM stock solutions in DMSO (Fisher cat. #BP-231-100). KRAS G12C 1-169, his-tagged protein, GDP-loaded is diluted to 2 μM or 0.5 μM in buffer (20 mM Hepes, 150 mM NaCl, 1 mM MgCl2). Compounds were tested for activity as follows:
Compounds were diluted to 50× final test concentration in DMSO in 96-well storage plates. Compound stock solutions were vortexed before use and observed cwerefully for any sign of precipitation. Dilutions were as follow: • For 32 μM final compound concentration, compounds were diluted to 1600 μM (3 μL 10 mM compound stock +15.75 μL DMSO and mixed well by pipetting. • For 8 μM final compound concentration, compounds were diluted to 400 μM (2 μL 10 mM compound stock +48 μL DMSO) and mixed well by pipetting. 49 μL of the stock protein solution was added to each well of a 96-well PCR plate (Fisher cat#1423027). 1 μl of the diluted 50× compounds were added to appropriate wells in the PCR plate using 12-channel pipettor. Reactions were mixed carefully and thoroughly by pipetting up/down with a 200 μL multi-channel pipettor. The plate was sealed well with aluminum plate seal, and protein and compound were allowed to react for a desired amount of time. 5 μL of 2% formic acid (Fisher cat#A117) in de-ionized H2O was then added to each well followed by mixing with a pipette to quench the reaction. The plate was then resealed with aluminum seal and stored frozen on dry ice until analyzed as described below.
The above described assays were analyzed by mass spectrometry according to one of the following two procedures:
The MS instrument was set to positive polarity, 2 GHz resolution, and low mass (1700) mode and allowed to equilibrate for 30 minutes. The instrument was then calibrated, switched to acquisition mode and the appropriate method loaded.
After another 30 minute equilibration time, a blank batch (i.e., buffer) was run to ensure equipment is operating properly. The samples were thawed at 37° C. for 10 minutes, briefly centrifuged, and transfered to the bench top. Wells A1 and H12 were spiked with 1 μL 500 μM internal standard peptide, and the plates centrifuged at 2000×g for 5 minutes. The method was then run and masses of each individual well recorded.
The masses (for which integration data is desired) for each well were pasted into the platemap and exported from the analysis. Masses for the internal standards were exported as well. The data at 50 ppm was extracted for the +19 charge state, and identity of well A1 was assigned using the internal standard spike and integrated. Peak data was exported as a TOF list and the above steps were repeated individually, for the +20, +21, +22, +23, +24, and +25 charge states.
The masses and peak intensities of KRAS G12C protein species were measured using a Dionex RSLCnano system (Thermo Scientific) connected to a Q Exactive Plus mass spectrometer (Thermo Scientific).
20 μL of sample was loaded onto a Aeris™ 3.6 μm WIDEPORE C4 200 Å, LC Column 50×2.1 mm column maintained at 40° C. at a flow rate of 600 μL/min with 80% Solvent A (0.1% formic acid in H2O) and 20% Solvent B (0.1% formic acid in acetonitrile). The liquid chromatography conditions were 20% solvent B for 1 minute, 20% to 60% solvent B for 1.5 minutes, 60% to 90% solvent for 0.5 minute, 90% solvent B for 0.2 minute, 90% to 20% solvent B for 0.2 minute, and then equilibrated for 1.6 minute before the following sample injection. The flow rate was maintained at 600 μL/min throughout the sample analysis.
The mass spectrometer was operated in profile mode at a resolution of 17500, 5 microscans, using 50 msec max injection time and an AGC target of 1×10^6, and a full mass range from 800-1850 m/z was recorded. The intact protein mode was applied for optimal ion transfer and maximum sensitivity. The ionization method was electrospray ionization, which used a spray voltage of 4 kV, sheath gas flow set to 50 AU, auxiliary gas flow set to 10 AU and sweep gas flow set to 1 AU. […]
In the case of C=CC(=O)N1CC2(CCN(c3ccc(F)c(-c4c(C)ccc5[nH]ncc45)c3C#N)CC2)C1 (atropisomer, axis not shown) [Compound I-140, (R)-6-(2-acryloyl-2,7-diazaspiro[3.5]nonan-7-yl)-3-fluoro-2-(5-methyl-1H-indazol-4-yl)benzonitrile], the Bind % is reported as “+ (+ indicates binding activity greater than 0% and up to 50%)”. In the case of C=CC(=O)N1CC2(CCN(c3ccc(F)c(-c4c(C)ccc5[nH]ncc45)c3C#N)CC2)C1 (atropisomer, axis not shown) [Compound I-141, (S)-6-(2-acryloyl-2,7-diazaspiro[3.5]nonan-7-yl)-3-fluoro-2-(5-methyl-1H-indazol-4-yl)benzonitrile], the Bind % is reported as “+ (+ indicates binding activity greater than 0% and up to 50%)”. In the case of C=CC(=O)N1CC2(CCN(c3cccc(-c4c(C)ccc5[nH]ncc45)c3C#N)C2)C1 [Compound I-1, 2-(2-acryloyl-2,6-diazaspiro[3.4]octan-6-yl)-6-(5-methyl-1H-indazol-4-yl)benzonitrile], the Bind % is reported as “+++ (+++ indicates binding activity greater than 75%)”. In the case of C=CC(=O)N1CC2(CCN(c3cccc(-c4c(C)ccc5[nH]ncc45)c3OC)C2)C1 [Compound I-2, 1-(6-(2-methoxy-3-(5-methyl-1H-indazol-4-yl)phenyl)-2,6-diazaspiro[3.4]octan-2-yl)prop-2-en-1-one], the Bind % is reported as “+ (+ indicates binding activity greater than 0% and up to 50%)”. C=CC(=O)N1CC2(CCN(c3cccc(-c4c(C)ccc5cnn(C)c45)c3F)C2)C1 [Compound I-3, 1-(6-(3-(1,6-dimethyl-1H-indazol-7-yl)-2-fluorophenyl)-2,6-diazaspiro[3.4]octan-2-yl)prop-2-en-1-one] was tested, and the Bind % was “+ (+ indicates binding activity greater than 0% and up to 50%)”. In the case of CC#CC(=O)N1CC2(CCN(c3cccc(-c4c(C)ccc5[nH]ncc45)c3C#N)C2)C1 [Compound I-4, 2-(2-(but-2-ynoyl)-2,6-diazaspiro[3.4]octan-6-yl)-6-(5-methyl-1H-indazol-4-yl)benzonitrile], the Bind % is reported as “+ (+ indicates binding activity greater than 0% and up to 50%)”. With C=CC(=O)N1CC2(CCN(c3cccc(-c4c(C)ccc5cnn(C)c45)c3OC)C2)C1 [Compound I-5, 1-(6-(3-(1,6-dimethyl-1H-indazol-7-yl)-2-methoxyphenyl)-2,6-diazaspiro[3.4]octan-2-yl)prop-2-en-1-one] the Bind % was “++ (++ indicates binding activity from 50 to 75%)”. In the case of C=CC(=O)N1CCC2(CCN(c3cccc(-c4c(O)cccc4F)c3C#N)C2)C1 (stereo not shown) [Compound I-6, 3-(7-acryloyl-2,7-diazaspiro[4.4]nonan-2-yl)-2′-fluoro-6′-hydroxy-[1,1′-biphenyl]-2-carbonitrile], the Bind % is reported as “+ (+ indicates binding activity greater than 0% and up to 50%)”. In the case of C=CC(=O)N1CC2(CCN(c3cc(N4CCOCC4)cc(-c4c(C)ccc5[nH]ncc45)c3C#N)C2)C1 [Compound I-7, 2-(2-acryloyl-2,6-diazaspiro[3.4]octan-6-yl)-6-(5-methyl-1H-indazol-4-yl)-4-morpholino-benzonitrile], the Bind % is reported as “+++ (+++ indicates binding activity greater than 75%)”. C=CC(=O)N1CC2(CCN(c3cccc(-c4c(C)ccc5[nH]ncc45)c3F)C2)C1 [Compound I-8, 1-(6-(2-fluoro-3-(5-methyl-1H-indazol-4-yl)phenyl)-2,6-diazaspiro[3.4]octan-2-yl)prop-2-en-1-one] was tested, and the Bind % was “+ (+ indicates binding activity greater than 0% and up to 50%)”. In the case of C=CC(=O)N1CCC2(C1)CN(c1cccc(-c3c(C)ccc4[nH]ncc34)c1C#N)C2 [Compound I-9, 2-(6-acryloyl-2,6-diazaspiro[3.4]octan-2-yl)-6-(5-methyl-1H-indazol-4-yl)benzonitrile], the Bind % is reported as “+ (+ indicates binding activity greater than 0% and up to 50%)”. With C=CC(=O)N1CCC2(C1)CN(c1cccc(-c3c(O)cccc3F)c1C#N)C2 [Compound I-10, 3-(6-acryloyl-2,6-diazaspiro[3.4]octan-2-yl)-2′-fluoro-6′-hydroxy-[1,1′-biphenyl]-2-carbonitrile] the Bind % was “+ (+ indicates binding activity greater than 0% and up to 50%)”. For C=CC(=O)N1CCC2(C1)CN(c1cccc(-c3c(C)ccc4cnn(C)c34)c1C#N)C2 [Compound I-11, 2-(6-acryloyl-2,6-diazaspiro[3.4]octan-2-yl)-6-(1,6-dimethyl-1H-indazol-7-yl)benzonitrile], the Bind % was “+ (+ indicates binding activity greater than 0% and up to 50%)”. With CC#CC(=O)N1CC2(CCN(c3cccc(-c4c(C)ccc5cnn(C)c45)c3C#N)C2)C1 [Compound I-12, 2-(2-(but-2-ynoyl)-2,6-diazaspiro[3.4]octan-6-yl)-6-(1,6-dimethyl-1H-indazol-7-yl)benzonitrile] the Bind % was “+ (+ indicates binding activity greater than 0% and up to 50%)”. In the case of C=CC(=O)N1CCC2(CCN(c3cccc(-c4c(C)ccc5cnn(C)c45)c3C#N)C2)C1 (stereo not shown) [Compound I-13, 2-(7-acryloyl-2,7-diazaspiro[4.4]nonan-2-yl)-6-(1,6-dimethyl-1H-indazol-7-yl)benzonitrile], the Bind % is reported as “+ (+ indicates binding activity greater than 0% and up to 50%)”. In the case of C=CC(=O)N1CC2(CCN(c3cc(OC)cc(-c4c(C)ccc5[nH]ncc45)c3C#N)C2)C1 [Compound I-14, 2-(2-acryloyl-2,6-diazaspiro[3.4]octan-6-yl)-4-methoxy-6-(5-methyl-1H-indazol-4-yl)benzonitrile], the Bind % is reported as “+++ (+++ indicates binding activity greater than 75%)”. With C=CC(=O)N1CCC2(CC1)CN(c1cccc(-c3c(C)ccc4cnn(C)c34)c1C#N)C2 [Compound I-15, 2-(7-acryloyl-2,7-diazaspiro[3.5]nonan-2-yl)-6-(1,6-dimethyl-1H-indazol-7-yl)benzonitrile] the Bind % was “+ (+ indicates binding activity greater than 0% and up to 50%)”. In the case of C=CC(=O)N1CC2(CCN(c3cc(N4CCOCC4)cc(-c4c(C)ccc5cnn(C)c45)c3C#N)C2)C1 [Compound I-16, 2-(2-acryloyl-2,6-diazaspiro[3.4]octan-6-yl)-6-(1,6-dimethyl-1H-indazol-7-yl)-4-morpholino-benzonitrile], the Bind % is reported as “+++ (+++ indicates binding activity greater than 75%)”. With C=CC(=O)N1CC2(CCN(c3cccc(-c4c(O)cccc4F)c3C#N)C2)C1 [Compound I-17, 3-(2-acryloyl-2,6-diazaspiro[3.4]octan-6-yl)-2′-fluoro-6′-hydroxy-[1,1′-biphenyl]-2-carbonitrile] the Bind % was “+ (+ indicates binding activity greater than 0% and up to 50%)”.

Same assay, conditions: tested at a concentration of 8 μM
With C=CC(=O)N1CC2(CCN(c3ccc(F)c(-c4c(C)ccc5[nH]ncc45)c3C#N)C2)C1 (atropisomer, axis not shown) [Compound I-43, (R)-6-(2-acryloyl-2,6-diazaspiro[3.4]octan-6-yl)-3-fluoro-2-(5-methyl-1H-indazol-4-yl)benzonitrile] the Bind % was “+++ (+++ indicates binding activity greater than 75%)”. With C=CC(=O)N1CC2(CCN(c3ccc(F)c(-c4c(C)ccc5cnn(C)c45)c3C#N)C2)C1 (atropisomer, axis not shown) [Compound I-44, (S)-6-(2-acryloyl-2,6-diazaspiro[3.4]octan-6-yl)-2-(1,6-dimethyl-1H-indazol-7-yl)-3-fluorobenzo-nitrile] the Bind % was “+++ (+++ indicates binding activity greater than 75%)”. For C=CC(=O)N1CC2(CCN(c3ccc(F)c(-c4c(C)ccc5cnn(C)c45)c3C#N)C2)C1 (atropisomer, axis not shown) [Compound I-45, (R)-6-(2-acryloyl-2,6-diazaspiro[3.4]octan-6-yl)-2-(1,6-dimethyl-1H-indazol-7-yl)-3-fluorobenzo-nitrile], the Bind % was “+ (+ indicates binding activity greater than 0% and up to 50%)”.
